In ChEMBL document CHEMBL4130412, “Characterization of the Degradation Profile of Umbelliprenin, a Bioactive Prenylated Coumarin of a Ferulago Species” (J Nat Prod, 2017):
Values belong to the compound of their own block, whether it stands above or below them.

How the values were obtained:
Format in all cases: physicochemical
[1] = Drug level treated with umbelliprenin under sunlight in EtOH solution after 6 days by 1H-NMR analysis; details: 144 h
[2] = Stability of the compound assessed as compound degradation in 3% H2O2 solution at room temperature in EtOH solution after 96 hrs by HPLC analysis; details: 3% H2O2 solution in EtOH solution; read-out: Drug degradation
[3] = Photostability of the compound assessed as parent compound remaining under sunlight exposed for 3 days in EtOH solution measured in presence of UV-B filter octinoxate by TLC method; details: read-out: Stability
[4] = Thermal stability of the compound at 40 degC in EtOH solution after 3 to 4 days by HPLC analysis
[5] = Photochemical stability of the compound assessed as compound degradation under 254 nm UV-light exposure using solid samples measured up to 96 hrs by HPLC analysis; details: read-out: Drug degradation
[6] = Photochemical stability of the compound assessed as compound degradation under 254 nm UV-light exposure in EtOH solution measured after 24 hrs by HPLC analysis; details: read-out: Drug degradation
[7] = Photochemical stability of the compound assessed as compound degradation under sunlight using solid samples measured up to 96 hrs by HPLC analysis; details: read-out: Drug degradation
[8] = Thermal stability of the compound assessed as compound degradation at 37 degC in EtOH solution after 48 hrs by HPLC analysis; details: read-out: Drug degradation
[9] = Stability of the compound assessed as compound degradation in 0.1 M HCl solution at room temperature in EtOH solution after 96 hrs by HPLC analysis; details: 0.1 M HCl solution in EtOH solution; read-out: Drug degradation
[10] = Photochemical stability of the compound assessed as compound degradation under sunlight in EtOH solution measured after 4 days by HPLC analysis; details: read-out: Drug degradation
[11] = Photostability of the compound assessed as parent compound remaining under sunlight exposed for 6 days in EtOH solution measured by TLC method; details: read-out: Stability
[12] = Stability of the compound assessed as compound degradation in 0.1 M HCl solution at 60 to 80 degC using solid sample up to 96 hrs by HPLC analysis; details: buffer
[13] = Thermal stability of the compound at 37 degC in EtOH solution after 3 to 4 days by HPLC analysis
[14] = Stability of the compound assessed as compound degradation in 3% H2O2 solution at 40 degC in EtOH solution after 24 hrs by HPLC analysis; details: 3% H2O2 solution in EtOH solution; read-out: Drug degradation
[15] = Photostability of the compound assessed as parent compound remaining under sunlight exposed for 6 days in EtOH solution measured in presence of UV-B filter octinoxate by TLC method; details: read-out: Stability
[16] = Thermal stability of the compound assessed as compound degradation at 40 degC in EtOH solution after 48 hrs by HPLC analysis; details: read-out: Drug degradation
[17] = Stability of the compound assessed as compound degradation in 3% H2O2 solution at 40 degC in EtOH solution after 96 hrs by HPLC analysis; details: 3% H2O2 solution in EtOH solution; read-out: Drug degradation
[18] = Photochemical stability of the compound assessed as compound degradation under sunlight in EtOH solution measured after 24 hrs by HPLC analysis; details: read-out: Drug degradation
[19] = Stability of the compound assessed as compound degradation in 3% H2O2 solution at room temperature in EtOH solution after 24 hrs by HPLC analysis; details: 3% H2O2 solution in EtOH solution; read-out: Drug degradation
[20] = Stability of the compound assessed as compound degradation in 0.1 M NaOH solution at 60 degC in EtOH solution after 96 hrs by HPLC analysis; details: 0.1 M NaOH solution in EtOH solution; read-out: Drug degradation
[21] = Photostability of the compound assessed as parent compound remaining under sunlight exposed for 3 days in EtOH solution measured by TLC method; details: read-out: Stability
[22] = Photostability of the compound assessed as parent compound remaining under sunlight exposed for 6 days in EtOH solution measured in presence of antioxidant DL-alpha-tocopherol acetate by TLC method; details: read-out: Stability
[23] = Thermal stability of the compound assessed as compound degradation at 80 degC in EtOH solution measured up to 96 hrs by HPLC analysis; details: read-out: Drug degradation
[24] = Photostability of the compound assessed as parent compound remaining under sunlight exposed for 3 days in EtOH solution measured in presence of UV-A filter avobenzone by TLC method; details: read-out: Stability
[25] = Stability of the compound assessed as compound degradation in 0.1 M HCl solution at 60 degC in EtOH solution after 24 hrs by HPLC analysis; details: 0.1 M HCl solution in EtOH solution; read-out: Drug degradation
[26] = Photostability of the compound assessed as parent compound remaining under sunlight exposed for 3 days in EtOH solution measured in presence of UV-A filter DHHB by TLC method; details: read-out: Stability
[27] = Photostability of the compound assessed as parent compound remaining under sunlight exposed for 3 days in EtOH solution measured in presence of antioxidant DL-alpha-tocopherol acetate by TLC method; details: read-out: Stability
[28] = Photostability of the compound assessed as parent compound remaining under sunlight exposed for 6 days in EtOH solution measured in presence of UV-A filter DHHB by TLC method; details: read-out: Stability
[29] = Stability of the compound assessed as compound degradation in 0.1 M NaOH solution at room temperature in EtOH solution after 96 hrs by HPLC analysis; details: 0.1 M NaOH solution in EtOH solution; read-out: Drug degradation
[30] = Photostability of the compound assessed as parent compound remaining under sunlight exposed for 6 days in EtOH solution measured in presence of UV-A filter avobenzone by TLC method; details: read-out: Stability
[31] = Stability of the compound assessed as compound degradation in 0.1 M NaOH solution at 60 to 80 degC using solid sample up to 96 hrs by HPLC analysis
[32] = Thermal stability of the compound assessed as compound degradation at 37 to 80 degC using solid samples after 96 hrs by HPLC analysis; details: read-out: Drug degradation

- Drug metabolism [1]: Metabolite_Detected
SMILES: CC(C)=CCC/C(C)=C/CC/C(C)=C/COc1ccc2c(c1)OC(=O)[C@@H]1[C@@H]3C(=O)Oc4cc(OC/C=C(\C)CC/C=C(\C)CCC=C(C)C)ccc4[C@@H]3[C@H]21

- Drug metabolism [1]: Metabolite_Detected
SMILES: C/C1=C\COc2ccc3c(c2)OC(=O)C2C3C(CC/C(C)=C/CC1)C2(C)C (stereo not drawn)

- degraded at 96 h [2]: 41.6%
- remaining at 72 h [3]: 56%
- Stability [4]: Unstable
- degraded at 96 h [5]: 59.4%
- degraded at 24 h [6]: 25.8%
- degraded at 96 h [7]: 64.7%
- degraded at 48 h [8]: 1.8%
- degraded at 96 h [9]: 22.2%
- degraded at 96 h [10]: 91.6%
- remaining at 144 h [11]: 9%
- Stability [12]: Stable
- Stability [13]: Unstable
- degraded at 24 h [14]: 39.4%
- remaining at 144 h [15]: 13%
- degraded at 48 h [16]: 12.7%
- degraded at 96 h [17]: 50.1%
- degraded at 24 h [18]: 70.4%
- degraded at 24 h [19]: 19.1%
- degraded at 96 h [20]: 85%
- remaining at 72 h [21]: 35%
- remaining at 144 h [22]: 10%
- degraded at 96 h [23]: 34%
- remaining at 72 h [24]: 97%
- degraded at 24 h [25]: > 95%
- remaining at 72 h [26]: 100%
- remaining at 72 h [27]: 32%
- remaining at 144 h [28]: 98%
- degraded at 96 h [29]: 85%
- remaining at 144 h [30]: 88%
- Stability [31]: Stable
- degraded at 96 h [32]: 54.6 to 65.1%
SMILES: CC(C)=CCC/C(C)=C/CC/C(C)=C/COc1ccc2ccc(=O)oc2c1 [UMBELLIPRENIN]
